Calls of active or inactive are those of the source. The rule behind the calls is not given here.
Tests used:
[1] = target: von Hippel-Lindau disease tumor suppressor/Serine/threonine-protein kinase PAK 1 (Homo sapiens, UniProt Q13153+P40337); experiment: PROTAC activity at VHL/PAK1 in human MDA-MB-231 cells assessed as induction of protein degradation at 2.5 uM incubated for 48 hrs by Western blot analysis relative to control; assay type: cell-based
[2] = target: Serine/threonine-protein kinase PAK 1 (Homo sapiens, UniProt Q13153); experiment: Inhibition of PAK1 phosphorylation at S144 in human MDA-MB-231 cells incubated upto 48 hrs by Western blot analysis; assay type: cell-based
Sequence of Serine/threonine-protein kinase PAK 1 (Q13153 whole entry): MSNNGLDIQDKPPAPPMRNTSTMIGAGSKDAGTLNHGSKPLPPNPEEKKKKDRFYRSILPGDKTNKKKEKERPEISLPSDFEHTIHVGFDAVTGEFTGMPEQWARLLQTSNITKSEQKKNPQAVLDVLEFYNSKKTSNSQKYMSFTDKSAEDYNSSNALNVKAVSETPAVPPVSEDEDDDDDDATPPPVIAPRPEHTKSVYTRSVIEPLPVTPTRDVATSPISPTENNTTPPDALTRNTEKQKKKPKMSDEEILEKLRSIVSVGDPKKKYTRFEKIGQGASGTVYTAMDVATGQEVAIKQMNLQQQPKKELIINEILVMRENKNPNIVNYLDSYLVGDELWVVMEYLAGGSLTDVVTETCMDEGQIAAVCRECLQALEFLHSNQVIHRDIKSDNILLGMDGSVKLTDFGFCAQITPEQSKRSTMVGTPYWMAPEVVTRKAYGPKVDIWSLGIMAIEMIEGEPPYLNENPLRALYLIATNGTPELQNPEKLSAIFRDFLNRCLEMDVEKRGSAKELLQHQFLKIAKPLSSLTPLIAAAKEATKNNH

Sequence of von Hippel-Lindau disease tumor suppressor/Serine/threonine-protein kinase PAK 1 (Q13153 2-545 limits assumed): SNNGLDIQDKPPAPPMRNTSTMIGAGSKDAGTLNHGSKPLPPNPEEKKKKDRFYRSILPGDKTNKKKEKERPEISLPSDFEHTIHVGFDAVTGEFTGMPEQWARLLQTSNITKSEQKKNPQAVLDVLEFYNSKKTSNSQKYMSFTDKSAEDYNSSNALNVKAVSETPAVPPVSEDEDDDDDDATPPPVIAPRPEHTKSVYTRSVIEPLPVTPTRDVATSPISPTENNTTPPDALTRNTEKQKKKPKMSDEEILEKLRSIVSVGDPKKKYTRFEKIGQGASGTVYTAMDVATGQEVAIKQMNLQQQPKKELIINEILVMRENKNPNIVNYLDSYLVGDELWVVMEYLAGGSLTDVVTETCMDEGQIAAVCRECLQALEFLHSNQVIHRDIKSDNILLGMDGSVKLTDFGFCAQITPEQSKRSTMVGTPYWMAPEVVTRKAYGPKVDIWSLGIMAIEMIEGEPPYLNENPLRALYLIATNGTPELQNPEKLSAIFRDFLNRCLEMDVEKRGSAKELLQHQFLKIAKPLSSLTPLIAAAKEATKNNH
Sequence of von Hippel-Lindau disease tumor suppressor/Serine/threonine-protein kinase PAK 1 (P40337 whole entry partner): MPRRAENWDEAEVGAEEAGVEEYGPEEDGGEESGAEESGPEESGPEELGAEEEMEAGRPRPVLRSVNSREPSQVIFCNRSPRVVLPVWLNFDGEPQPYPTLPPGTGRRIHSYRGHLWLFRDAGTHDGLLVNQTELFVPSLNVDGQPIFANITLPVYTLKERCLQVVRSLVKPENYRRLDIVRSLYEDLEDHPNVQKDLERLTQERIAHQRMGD

**Q.** How did the Activity [1] turn out when `Cc1ncsc1-c1ccc([C@H](C)NC(=O)[C@@H]2C[C@@H](O)CN2C(=O)[C@@H](NC(=O)CCc2cn(CCCCCCCn3c(=O)c(-c4ccc(Cl)cc4Cl)cc4cnc(NC5CC5)nc43)nn2)C(C)(C)C)cc1` was run?
**A.** 71%

**Q.** What about the inhibition [2] of the same molecule?
**A.** Active

Reference: ChEMBL document CHEMBL6127034, “Design, synthesis and biological evaluation of a novel PAK1 degrader for the treatment of triple negative breast cancer” (Bioorg Med Chem, 2024)
